# Results reported in ChEMBL document CHEMBL4602617, “Discovery and optimization of heteroaryl piperazines as potent and selective PI3Kδ inhibitors” (Bioorg Med Chem Lett, 2020).
# Experiments:
# [1] = target: Macrophage colony-stimulating factor 1 receptor (Homo sapiens, UniProt P07333); assay: Inhibition of recombinant human His-tagged CSF1R catalytic domain (538 to 910 residues) expressed in baculovirus expression system using tyrosine-1 peptide as substrate incubated for 60 mins in presence of ATP by Z'-LYTE assay
# [2] = target: Serine/threonine-protein kinase pim-1 (Homo sapiens, UniProt P11309); assay: Inhibition of recombinant full length human His-tagged PIM1 expressed in baculovirus expression system using serine/threonine-7 peptide as substrate incubated for 60 mins in presence of ATP by Z'-LYTE assay
# [3] = target: Casein kinase II subunit alpha (Homo sapiens, UniProt P68400); assay: Inhibition of recombinant human full-length His-tagged CSNK2A1 expressed in baculovirus expression system using FRET-labeled Ser/Thr 11 peptide as substrate measured after 1 hr in presence of ATP by Z'-lyte assay
# [4] = target: Casein kinase I isoform gamma-2 (Homo sapiens, UniProt P78368); assay: Inhibition of recombinant human full-length His-tagged CSNK1G2 expressed in baculovirus expression system using FRET-labeled Ser/Thr 05 peptide as substrate measured after 1 hr in presence of ATP by Z'-lyte assay
# [5] = target: Tyrosine-protein kinase BTK (Homo sapiens, UniProt Q06187); assay: Inhibition of recombinant full length human His-tagged BTK expressed in baculovirus expression system using tyrosine-2 peptide as substrate incubated for 60 mins in presence of ATP by Z'-LYTE assay
# [6] = target: PI3-kinase p110-delta/p85-alpha (Homo sapiens, UniProt O00329); assay: Inhibition of recombinant human full-length N-terminal GST-tagged p110delta/untagged full-length p85alpha expressed in baculovirus infected Sf21 cells using PIP2 as substrate preincubated for 15 mins followed by substrate addition and measured after 1 hr by HTRF assay
# [7] = target: C-C chemokine receptor type 1 (Homo sapiens) (UniProt P32246); assay: Displacement of [125I]MIP-1alpha from recombinant full length human recombinant CCR1 expressed in Chem2 cells at 10 uM measured after 3 hrs by radiometric scintillation analysis relative to control; assay type: cell-based
# [8] = target: Protein kinase C epsilon type (Homo sapiens, UniProt Q02156); assay: Inhibition of recombinant full length human GST-tagged PRKCE expressed in insect expression system using serine/threonine-7 peptide as substrate incubated for 60 mins in presence of ATP by Z'-LYTE assay
# SRSF protein kinase 1 = SRSF protein kinase 1 (Homo sapiens, UniProt Q96SB4); assay: Inhibition of recombinant full length human His-tagged SRPK1 expressed in baculovirus expression system using serine/threonine-18 peptide as substrate incubated for 60 mins in presence of ATP by Z'-LYTE assay
# [9] = Oral bioavailability in dog at 0.5 mg/kg; assay type: ADME, organism-based, Canis lupus familiaris; conditions: in vivo
# [10] = target: Cyclin-dependent kinase 5/CDK5 activator 1 (Homo sapiens, UniProt Q00535); assay: Inhibition of recombinant full length human His-tagged CDK5/p35 expressed in baculovirus expression system using serine/threonine-12 peptide as substrate incubated for 60 mins in presence of ATP by Z'-LYTE assay
# [11] = target: Muscarinic acetylcholine receptor M4 (Homo sapiens) (UniProt P08173); assay: Displacement of [3H]N-Methylscopolamine from full length human recombinant Muscarinic M4 receptor expressed in CHOK1 cells at 10 uM measured after 120 mins by radiometric scintillation analysis relative to control; assay type: cell-based; conditions: CHO-K1
# [12] = target: Serine/threonine-protein kinase 26 (Homo sapiens, UniProt Q9P289); assay: Inhibition of recombinant full length human GST-tagged MST4 expressed in baculovirus expression system using serine/threonine-7 peptide as substrate incubated for 60 mins in presence of ATP by Z'-LYTE assay
# [13] = target: Ribosomal protein S6 kinase alpha-4 (Homo sapiens, UniProt O75676); assay: Inhibition of recombinant full length human GST-tagged RPS6KA4 expressed in baculovirus expression system using ser/Thr01 peptide as substrate incubated for 60 mins in presence of ATP by Z'-LYTE assay
# [14] = target: Eukaryotic elongation factor 2 kinase (Homo sapiens, UniProt O00418); assay: Inhibition of recombinant human full length GST-tagged EEF2K expressed in Escherichia coli expression system using serine/threonine-24 peptide as substrate incubated for 60 mins in presence of ATP by Z'-LYTE assay
# [15] = target: Glutamate NMDA receptor (Rattus norvegicus) (UniProt P35439+Q00959+Q00960+Q00961+Q62645+Q8VHN2+Q9R1M7); assay: Displacement of [3H]TCP from glutamate NMDA receptor phencyclidine binding site in Wistar rat cerebral cortex at 10 uM incubated for 45 mins by radiometric scintillation analysis relative to control
# [16] = target: Epidermal growth factor receptor (Homo sapiens, UniProt P00533, T790M); assay: Inhibition of human recombinant GST-tagged EGFR T790M mutant cytoplasmic domain expressed in baculovirus expression system using tyrosine 4 peptide as substrate after 60 mins in presence of ATP FRET based Z'-LYTE assay
# [17] = target: Tyrosine-protein kinase Fyn (Homo sapiens, UniProt P06241); assay: Inhibition of recombinant full length C-terminal His-tagged human FYN cytoplasmic domain expressed in baculovirus expression system using fluorophore-labeled tyrosine-2 peptide as substrate after 1 hr in presence of ATP by Z'-Lyte assay
# [18] = target: Cannabinoid receptor 1 (Homo sapiens) (UniProt P21554); assay: Inhibition of human CB1 receptor at 10 uM relative to control
# [19] = target: Phosphorylase b kinase gamma catalytic chain, liver/testis isoform (Homo sapiens, UniProt P15735); assay: Inhibition of recombinant full length human N-terminal GST-tagged PHKG2 expressed in baculovirus expression system using serine/threonine-7 peptide as substrate incubated for 60 mins in presence of ATP by Z'-LYTE assay
# [20] = target: Alpha-1A adrenergic receptor (Rattus norvegicus) (UniProt P43140); assay: Displacement of [3H]prazosin from alpha1a adrenergic receptor in Wistar rat submaxillary gland membranes at 10 uM measured after 60 mins by scintillation counting method relative to control; assay type: cell membranes; conditions: Membrane
# [21] = Clearance in rat plasma at 0.5 mg/kg, iv or 1 mg/kg, po; assay type: ADME, organism-based
# [22] = target: Tyrosine-protein kinase JAK2 (Homo sapiens, UniProt O60674); assay: Inhibition of human recombinant GST tagged JAK2 catalytic domain expressed in baculovirus expression system using Tyr6 peptide as substrate measured after 1 hr in presence of ATP by Z'-LYTE assay
# [23] = target: Metabotropic glutamate receptor 5 (Homo sapiens) (UniProt P41594); assay: Displacement of [3H]quisqualic acid from full length human recombinant mGlu5 receptor expressed in CHO-K1 cells at 10 uM measured after 120 mins by radiometric scintillation analysis relative to control; assay type: cell-based
# [24] = target: Serine/threonine-protein kinase D1 (Homo sapiens, UniProt Q15139); assay: Inhibition of recombinant full length human GST-tagged PKCmu expressed in baculovirus expression system using serine/threonine-17 peptide as substrate incubated for 60 mins in presence of ATP by Z'-LYTE assay
# [25] = target: Protein kinase C beta type (Homo sapiens, UniProt P05771); assay: Inhibition of recombinant full length human GST-tagged PKCbeta2 expressed in insect expression system using serine/threonine-7 peptide as substrate incubated for 60 mins in presence of ATP by Z'-LYTE assay
# Sequence of Casein kinase II subunit alpha (P68400 whole entry, canonical isoform): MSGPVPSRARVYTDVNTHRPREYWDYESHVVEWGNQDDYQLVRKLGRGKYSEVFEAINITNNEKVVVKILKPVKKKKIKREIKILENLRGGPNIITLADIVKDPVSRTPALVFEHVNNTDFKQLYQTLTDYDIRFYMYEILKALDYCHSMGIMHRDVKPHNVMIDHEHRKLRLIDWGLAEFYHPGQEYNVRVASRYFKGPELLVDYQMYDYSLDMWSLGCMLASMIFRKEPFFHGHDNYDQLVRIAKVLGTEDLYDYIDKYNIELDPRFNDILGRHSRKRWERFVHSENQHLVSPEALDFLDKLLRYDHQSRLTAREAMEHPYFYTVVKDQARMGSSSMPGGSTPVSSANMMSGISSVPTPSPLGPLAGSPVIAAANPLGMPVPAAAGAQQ
# Sequence of Protein kinase C epsilon type (Q02156 whole entry): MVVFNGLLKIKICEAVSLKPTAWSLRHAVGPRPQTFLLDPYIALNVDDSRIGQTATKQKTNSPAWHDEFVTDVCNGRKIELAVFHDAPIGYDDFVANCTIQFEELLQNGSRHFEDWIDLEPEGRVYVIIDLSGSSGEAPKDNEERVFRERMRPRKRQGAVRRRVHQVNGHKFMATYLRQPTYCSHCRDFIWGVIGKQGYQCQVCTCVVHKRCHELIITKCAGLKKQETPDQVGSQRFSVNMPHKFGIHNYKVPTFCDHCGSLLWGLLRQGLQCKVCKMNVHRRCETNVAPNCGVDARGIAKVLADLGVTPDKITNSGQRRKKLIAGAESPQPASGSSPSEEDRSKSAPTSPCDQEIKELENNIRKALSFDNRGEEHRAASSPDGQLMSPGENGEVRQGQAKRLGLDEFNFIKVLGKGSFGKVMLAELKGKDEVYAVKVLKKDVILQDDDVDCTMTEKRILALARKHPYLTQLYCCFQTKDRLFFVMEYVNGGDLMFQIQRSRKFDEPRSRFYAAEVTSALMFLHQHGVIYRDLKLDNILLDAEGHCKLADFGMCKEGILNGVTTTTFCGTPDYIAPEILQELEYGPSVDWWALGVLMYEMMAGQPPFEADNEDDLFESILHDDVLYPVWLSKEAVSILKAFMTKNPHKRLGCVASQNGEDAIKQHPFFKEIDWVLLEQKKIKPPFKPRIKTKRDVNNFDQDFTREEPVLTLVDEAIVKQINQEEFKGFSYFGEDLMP
# Sequence of Serine/threonine-protein kinase D1 (Q15139 whole entry): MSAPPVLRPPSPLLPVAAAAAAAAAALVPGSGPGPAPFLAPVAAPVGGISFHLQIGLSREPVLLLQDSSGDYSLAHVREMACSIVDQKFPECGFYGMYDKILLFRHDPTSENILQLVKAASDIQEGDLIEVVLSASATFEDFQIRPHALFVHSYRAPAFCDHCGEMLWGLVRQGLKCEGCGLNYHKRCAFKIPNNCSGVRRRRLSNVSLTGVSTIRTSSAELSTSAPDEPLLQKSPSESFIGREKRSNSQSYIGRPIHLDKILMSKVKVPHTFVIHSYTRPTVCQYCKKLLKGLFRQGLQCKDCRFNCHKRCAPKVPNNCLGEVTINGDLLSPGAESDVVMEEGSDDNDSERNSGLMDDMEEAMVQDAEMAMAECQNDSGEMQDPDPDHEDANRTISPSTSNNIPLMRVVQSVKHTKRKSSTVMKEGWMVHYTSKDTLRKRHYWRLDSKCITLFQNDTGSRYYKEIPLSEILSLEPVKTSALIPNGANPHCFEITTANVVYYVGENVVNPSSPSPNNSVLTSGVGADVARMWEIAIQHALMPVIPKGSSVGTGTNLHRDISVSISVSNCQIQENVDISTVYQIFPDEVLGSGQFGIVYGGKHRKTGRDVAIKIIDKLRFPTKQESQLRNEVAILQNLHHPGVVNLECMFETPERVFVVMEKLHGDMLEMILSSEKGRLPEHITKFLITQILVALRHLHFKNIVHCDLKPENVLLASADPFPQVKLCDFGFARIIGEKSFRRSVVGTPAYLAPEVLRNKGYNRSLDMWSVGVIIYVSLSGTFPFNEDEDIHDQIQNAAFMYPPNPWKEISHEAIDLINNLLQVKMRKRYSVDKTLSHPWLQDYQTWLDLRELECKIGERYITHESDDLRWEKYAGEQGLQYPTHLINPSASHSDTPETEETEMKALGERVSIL
# Sequence of Serine/threonine-protein kinase 26 (Q9P289 whole entry): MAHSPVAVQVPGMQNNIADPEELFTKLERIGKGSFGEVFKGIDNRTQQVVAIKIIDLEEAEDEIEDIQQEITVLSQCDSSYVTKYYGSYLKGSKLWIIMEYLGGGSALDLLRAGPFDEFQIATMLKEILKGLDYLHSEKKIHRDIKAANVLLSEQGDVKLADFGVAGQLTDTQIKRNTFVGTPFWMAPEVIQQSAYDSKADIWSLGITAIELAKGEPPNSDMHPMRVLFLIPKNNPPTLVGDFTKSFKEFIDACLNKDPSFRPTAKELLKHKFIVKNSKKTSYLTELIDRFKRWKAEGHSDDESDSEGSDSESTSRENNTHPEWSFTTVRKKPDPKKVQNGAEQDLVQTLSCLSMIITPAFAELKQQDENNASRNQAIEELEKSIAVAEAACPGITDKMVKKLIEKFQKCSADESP
# Sequence of Casein kinase I isoform gamma-2 (P78368 whole entry, canonical isoform): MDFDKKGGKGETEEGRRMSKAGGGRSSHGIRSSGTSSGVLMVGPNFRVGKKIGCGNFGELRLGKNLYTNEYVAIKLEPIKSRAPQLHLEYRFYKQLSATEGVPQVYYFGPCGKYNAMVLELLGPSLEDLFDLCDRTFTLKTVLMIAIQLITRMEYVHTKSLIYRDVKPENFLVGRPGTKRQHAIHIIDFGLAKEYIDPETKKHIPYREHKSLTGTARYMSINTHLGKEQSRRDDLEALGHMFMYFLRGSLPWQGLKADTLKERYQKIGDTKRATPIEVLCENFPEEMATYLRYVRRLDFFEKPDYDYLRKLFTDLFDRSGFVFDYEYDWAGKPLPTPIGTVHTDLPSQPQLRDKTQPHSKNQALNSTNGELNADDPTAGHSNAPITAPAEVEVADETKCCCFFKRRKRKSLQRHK
# Sequence of C-C chemokine receptor type 1 (Homo sapiens) (P32246 whole entry): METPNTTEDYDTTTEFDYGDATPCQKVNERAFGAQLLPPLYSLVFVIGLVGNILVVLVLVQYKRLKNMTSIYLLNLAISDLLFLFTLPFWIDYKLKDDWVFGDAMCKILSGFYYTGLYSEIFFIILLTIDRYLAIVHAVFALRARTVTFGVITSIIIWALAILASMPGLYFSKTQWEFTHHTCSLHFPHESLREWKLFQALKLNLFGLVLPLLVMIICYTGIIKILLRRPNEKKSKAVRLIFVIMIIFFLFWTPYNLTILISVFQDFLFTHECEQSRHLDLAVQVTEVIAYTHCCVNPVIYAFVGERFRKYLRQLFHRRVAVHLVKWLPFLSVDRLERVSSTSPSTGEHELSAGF
# Sequence of Cannabinoid receptor 1 (Homo sapiens) (P21554 whole entry, canonical isoform): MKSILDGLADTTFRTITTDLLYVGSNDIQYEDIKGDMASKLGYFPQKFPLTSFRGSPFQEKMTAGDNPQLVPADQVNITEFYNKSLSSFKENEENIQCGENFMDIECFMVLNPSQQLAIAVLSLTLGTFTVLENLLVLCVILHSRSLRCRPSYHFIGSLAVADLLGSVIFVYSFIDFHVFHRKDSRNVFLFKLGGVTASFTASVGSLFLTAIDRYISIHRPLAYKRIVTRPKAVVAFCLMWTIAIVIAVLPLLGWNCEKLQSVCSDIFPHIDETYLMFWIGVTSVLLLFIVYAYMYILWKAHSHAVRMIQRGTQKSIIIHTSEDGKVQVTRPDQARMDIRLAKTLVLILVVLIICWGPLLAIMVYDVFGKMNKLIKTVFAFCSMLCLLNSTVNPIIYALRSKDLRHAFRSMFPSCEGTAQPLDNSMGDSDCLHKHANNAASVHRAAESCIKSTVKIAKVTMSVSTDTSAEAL
# Sequence of Eukaryotic elongation factor 2 kinase (O00418 whole entry): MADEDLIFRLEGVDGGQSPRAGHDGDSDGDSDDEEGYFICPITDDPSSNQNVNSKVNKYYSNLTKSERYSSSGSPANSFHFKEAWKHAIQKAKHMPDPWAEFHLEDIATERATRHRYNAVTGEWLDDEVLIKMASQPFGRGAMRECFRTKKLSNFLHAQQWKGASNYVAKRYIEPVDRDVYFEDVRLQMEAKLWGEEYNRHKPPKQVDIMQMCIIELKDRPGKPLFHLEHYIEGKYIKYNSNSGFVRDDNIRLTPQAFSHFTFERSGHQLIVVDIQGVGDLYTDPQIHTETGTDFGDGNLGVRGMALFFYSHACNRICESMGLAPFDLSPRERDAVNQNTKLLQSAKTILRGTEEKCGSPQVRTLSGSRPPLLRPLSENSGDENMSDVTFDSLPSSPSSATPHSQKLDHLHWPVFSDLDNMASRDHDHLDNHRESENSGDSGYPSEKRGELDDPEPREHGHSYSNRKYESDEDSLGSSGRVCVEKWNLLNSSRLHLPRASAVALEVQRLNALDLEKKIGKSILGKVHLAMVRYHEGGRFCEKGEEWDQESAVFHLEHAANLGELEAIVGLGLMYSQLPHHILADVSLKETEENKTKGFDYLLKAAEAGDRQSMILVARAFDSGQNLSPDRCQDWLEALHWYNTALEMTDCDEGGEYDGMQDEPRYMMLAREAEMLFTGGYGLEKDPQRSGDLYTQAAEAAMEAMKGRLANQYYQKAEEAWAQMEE
# Sequence of Serine/threonine-protein kinase pim-1 (P11309 whole entry): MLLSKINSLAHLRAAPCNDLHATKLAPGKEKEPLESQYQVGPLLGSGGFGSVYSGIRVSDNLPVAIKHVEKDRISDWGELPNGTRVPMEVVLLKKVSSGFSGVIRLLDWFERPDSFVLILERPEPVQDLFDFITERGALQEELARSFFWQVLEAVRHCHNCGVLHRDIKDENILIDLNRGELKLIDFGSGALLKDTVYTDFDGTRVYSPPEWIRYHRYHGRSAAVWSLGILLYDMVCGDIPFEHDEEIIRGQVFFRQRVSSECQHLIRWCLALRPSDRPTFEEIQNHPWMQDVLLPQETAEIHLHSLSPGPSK
compound,measurement,setting,value
C[C@@H]1C[C@H]1C(=O)N1CCN(c2cnc(C#N)c(-c3cnn(C)c3)n2)C[C@H]1C,IC50,[1],> 100 µM
same,IC50,[2],> 100 µM
same,IC50,[3],> 100 µM
same,IC50,[4],> 100 µM
same,IC50,[5],39.6 µM
same,IC50,[6],0.009 µM
same,inhibition,[7],8%
same,IC50,[8],> 100 µM
same,IC50,SRSF protein kinase 1,> 100 µM
same,bioavailability,[9],100%
same,IC50,[10],> 100 µM
same,inhibition,[11],3%
same,IC50,[12],> 100 µM
same,IC50,[13],> 100 µM
same,IC50,[14],> 100 µM
same,inhibition,[15],-4%
same,IC50,[16],> 100 µM
same,IC50,[17],> 100 µM
same,inhibition,[18],-1%
same,IC50,[19],> 100 µM
same,inhibition,[20],-7%
same,clearance,[21],28.5 mL/min/kg
same,IC50,[22],> 100 µM
same,inhibition,[23],8%
same,IC50,[24],> 100 µM
same,IC50,[25],> 100 µM
